The record followed here is patent US20230203060A1 (GENFLEET THERAPEUTICS (SHANGHAI) INC., priority 2020, published 2023).

Like-named read-outs stand apart in the source and are kept apart here.

What all share (assay type): cell-based, human
Experiment [1] concerns KRAS G12C mutant NCI-H358 cells. The experiment in a line: Cell proliferation inhibition experiment, 3D spheroid, CellTiter-Glo, NCI-H358. The note with it: NCI-H358 (KRAS G12C mutant) 3D spheroid, 5 days with compound, CellTiter-Glo, read-out: H358 IC50. The source says: (§1) Raw materials and instruments: NCI-H358 purchased from ATCC; article number: CRL-5807; batch number: 70010825; A549 purchased from ATCC; article number: CCL-185; batch number: 70007820; RPMI1640 purchased from Gibco; article number: 11875-093; batch number: 2152748; F-12K purchased from Gibco; article number: 21127-022; batch number: 2185853; FBS purchased from Gibco; article number: 10099-141; batch number: 2109290CP; PS purchased from Gibco; article number: 15140-122; batch number: 2145451; Trypsin-EDTApurchased from Gibco; article number: 25200-072; batch number: 2085552; CellTiter Glo working solution purchased from Promega; article number: G9683; batch number: 398478; DMSO purchased from VWR AMRESCO; article number: 0231-500ML; batch number: 18C0656168; 384-well spheroid plate purchased from Corning; article number: 3830; batch number: 27519032; white opaque 384-well plate purchased from Corning; article number: 3570; batch number: 26819023; microplate reader purchased from PerkinElmer; model: Envision MLD2105-0020; equipment number 1050369.
(§2) NCI-H358 is a KRAS G12C mutant human non-small cell lung cancer cell line, cultured in 10% FBS RPMI-1640+1% PS culture medium; and A549 is a KRAS G12S mutant human lung adenocarcinoma cell line, cultured in 10% FBS F-12K+1% PS culture medium. Cells at logarithmic growth stage were taken, digested with trypsin-EDTA, then collected and counted. H358 was adjusted to 1.8 E4 cells/mL with 2% FBS RPMI-1640 culture medium, and A549 was adjusted to 8.9 E3 cells/mL with 2% FBS F-12K culture medium; 800 (45 μL) H358 or 400 (45 μL) A549 were inoculated respectively in a 384-well spheroid plate and cultured overnight to establish a 3D cell model. A 3.16-fold gradient concentration stock solution of 1000× compound was prepared with DMSO, and diluted 100-fold to 10× compound stock solution with 2% FBS culture medium. On the second day after cell inoculation, 5 μL of 10× compound stock solution was added to each cell culture well, with a final concentration of 1× and a DMSO content of 0.1%. DMSO was used as experimental control (control), and 2% FBS culture medium was used as blank control (blank). After 5 days of compound cell culture, 25 μL of CellTiter-Glo working solution was added to each well, mixed well at 400 rpm and incubated for 30 minutes. After standing at room temperature for 30 minutes, 40 μL of the mixed solution was transferred to a white opaque 384-well plate, and the luminescence chemiluminescence value was read with a microplate reader. The cell proliferation inhibition rate IR (%)=(RLU control -RLU compound)/(RLU control -RLU blank) x100% was calculated. The gradient dilution concentration of the compound and the corresponding cell proliferation inhibition rate were fitted by Prism 6 four-parameter method, and the IC50 value was calculated. The inhibitory activity of the compounds prepared in the above embodiments of the present disclosure on KRAS G12C mutant NCI-H358 cells was 0.0001 μM to 0.5 μM; the inhibitory activity of some compounds on KRAS G12C mutant NCI-H358 cells was 0.001 μM to 0.1 μM or 0.001 μM to 0.05 μM.

The subject of experiment [2] is A549 cells (KRAS G12S mutant). In words: Cell proliferation inhibition experiment, 3D spheroid, CellTiter-Glo, A549. The note with it: A549 (KRAS G12S mutant) 3D spheroid, 5 days with compound, CellTiter-Glo, read-out: A549 IC50.
Excerpt: as §1, §2

Experiment [3] concerns KRAS G12C mutant MIA PaCa-2 cells. In words: Cell proliferation inhibition experiment, 3D spheroid, CellTiter-Glo, MIA PaCa-2. The note with it: Homo sapiens, MIA PaCa-2, 120 h, 3D cell model in 384-well spheroid plate, 5 days, CellTiter-Glo; read-out: MIA-PaCa2 IC50. The source says:
Raw materials and instruments: MIA PaCa-2 purchased from ATCC; article number: CRL-1420; batch number: 63143594; DMEM purchased from Gibco; article number: 11995-065; batch number: 2186878; FBS purchased from Gibco; article number: 10099-141; batch number: 2109290CP; Horse Serum purchased from Gibco; article number: 16050-122; batch number: 1818976; PS purchased from Gibco; article number: 15140-122; batch number: 2145451; Trypsin-EDTA purchased from Gibco; article number: 25200-072; batch number: 2085552; CellTiter Glo working solution purchased from Promega; article number: G9683; batch number 398478; DMSO purchased from VWR AMRESCO; article number: 0231-500ML; batch number: 18C0656168; 384-well spheroid plate purchased from Corning; article number: 3830; batch number: 27519032; white opaque 384-well plate purchased from Corning; article number: 3570; batch number: 26819023; microplate reader purchased from PerkinElmer; model: Envision MLD2105-0020; equipment number 1050369.
MIA PaCa-2 is a KRAS G12C mutant human pancreatic cancer cell line, cultured in 10% FBS+2.5% Horse Serum DMEM+1% PS culture medium; cells at logarithmic growth stage were taken, digested with trypsin-EDTA, then collected and counted, and 200 MIA PaCa-2 were inoculated in a 384-well spheroid plate, respectively, and cultured overnight to establish a 3D cell model. A 3.16-fold gradient concentration stock solution of 1000× compound was prepared with DMSO, and diluted 100-fold to 10× compound stock solution with culture medium. On the second day after cell inoculation, 10× compound stock solution was added to each cell culture well, with a final concentration of 1× and a DMSO content of 0.1%. DMSO was used as experimental control (control), and culture medium was used as blank control (blank). After 5 days of compound cell culture, 30 μL of CellTiter-Glo working solution was added to each well, mixed well and incubated for 30 minutes. After standing at room temperature for 30 minutes, 40 μL of the mixed solution was transferred to a white opaque 384-well plate, and the luminescence chemiluminescence value was read with a microplate reader. The cell proliferation inhibition rate IR (%)=(RLU control -RLU compound)/(RLU control−RLU blank)×100% was calculated. The gradient dilution concentration of the compound and the corresponding cell proliferation inhibition rate were fitted by XLFit four-parameter method, and the IC50 value was calculated. The inhibitory activity of the compounds prepared in the above embodiments of the present disclosure on KRAS G12C mutant MIA PaCa-2 cells was 0.0001 μM to 0.5 μM; the inhibitory activity of some compounds on KRAS G12C mutant MIA PaCa-2 cells was 0.001 μM to 0.1 μM or 0.001 μM to 0.05 μM.
For orientation: In ATP-based viability assays light output follows the ATP content of the culture.

Regarding `C=CC(=O)N1CCN2C(=O)c3c(O[C@H]4CCN(C)C4)nc(-c4c(O)cccc4F)c(Cl)c3OC[C@H]2C1` [Z65, (6aR)-8-acryloyl-4-chloro-3-(2-fluoro-6-hydroxyphenyl)-1-(((S)-1-methylpyrrolidin-3-yl)oxy)-6,6a,7,8,9,10-hexahydro-12H-pyrazino[2,1-c]pyrido[3,4-f][1,4]oxazepin-12-one], the half-maximal inhibitory concentration (IC50) (commonly the concentration that inhibits the measured activity by half) in experiment [1] (Homo sapiens, NCI-H358, 120 h) is 51 nM; in experiment [2] (Homo sapiens, A549, 120 h) it was more than 30000 nM; in experiment [3], 38 nM.
Turning to `C=CC(=O)N1CCN2C(=O)c3c(NC(=O)CC(C)(C)C)nc(-c4c(O)cccc4F)c(Cl)c3OC[C@H]2C1` [Z33, N-((6aR)-8-acryloyl-4-chloro-3-(2-fluoro-6-hydroxyphenyl)-12-oxo-6,6a,7,8,9,10-hexahydro-12H-pyrazino[2,1-c]pyrido[3,4-f][1,4]oxazepin-1-yl)-3,3-dimethylbutanamide], the IC50 in experiment [1] (Homo sapiens, NCI-H358, 120 h) is 113 nM; in experiment [2] (Homo sapiens, A549, 120 h), more than 30000 nM.
Regarding `C=CC(=O)N1CCN2C(=O)c3c(N[C@H]4[C@@H]5CN(C)C[C@@H]54)nc(-c4c(O)cccc4F)c(Cl)c3OC[C@H]2C1` [Z46, (6aR)-8-acryloyl-4-chloro-3-(2-fluoro-6-hydroxyphenyl)-1-(((1R,5S,6s)-3-methyl-3-azabicyclo[3.1.0]hexan-6-yl)amino)-6,6a,7,8,9,10-hexahydro-12H-pyrazino[2,1-c]pyrido[3,4-f][1,4]oxazepin-12-one], the values for the concentration for half-maximal inhibition (IC50) in experiment [1] and in experiment [2] were 460 nM and more than 20000 nM, respectively.
Consider `C=CC(=O)N1CCN2C(=O)c3c(-c4cn(C)nc4C)nc(-c4c(O)cccc4F)c(Cl)c3OC[C@H]2C1` [Z74, (6aR)-8-acryloyl-4-chloro-1-(1,3-dimethyl-1H-pyrazol-4-yl)-3-(2-fluoro-6-hydroxyphenyl)-6,6a,7,8,9,10-hexahydro-12H-pyrazino[2,1-c]pyrido[3,4-f][1,4]oxazepin-12-one], for which the IC50 in experiment [1] (Homo sapiens, NCI-H358, 120 h) was 324 nM; in experiment [2] (Homo sapiens, A549, 120 h), more than 30000 nM.
As to `C=CC(=O)N1CCN2C(=O)c3c(N4C[C@](C)(O)CC4(C)C)nc(-c4c(O)cccc4F)c(F)c3OC[C@H]2C1` (single isomer, unassigned) [Z256b-2], the IC50 was 44.7 nM in experiment [1] (Homo sapiens, NCI-H358, 120 h) and 105 nM in experiment [3].
As to `C=CC(=O)N1CCN2C(=O)c3c(OC[C@H]4CCCN4C)nc(-c4c(O)cccc4F)c(Cl)c3OC[C@H]2C1` [Z13, (6aR)-8-acryloyl-4-chloro-3-(2-fluoro-6-hydroxyphenyl)-1-(((R)-1-methylpyrrolidin-2-yl)methoxy)-6,6a,7,8,9,10-hexahydro-12H-pyrazino[2,1-c]pyrido[3,4-f][1,4]oxazepin-12-one], the IC50 in experiment [1] (Homo sapiens, NCI-H358, 120 h) was 51 nM; in experiment [2] (Homo sapiens, A549, 120 h) it was more than 5000 nM.
With `C=CC(=O)N1CCN2C(=O)c3c(N4CCN5C(=O)CC[C@H]5C4)nc(-c4c(O)cccc4F)c(Cl)c3OC[C@H]2C1` (single isomer, unassigned) [Z317a-1], the concentration for half-maximal inhibition (IC50) in experiment [1] (Homo sapiens, NCI-H358, 120 h) is 145 nM; in experiment [2] (Homo sapiens, A549, 120 h) it was more than 30000 nM.
For `C=CC(=O)N1CCN2C(=O)c3c(N4CCN5C(=O)CC[C@@H]5C4)nc(-c4c(O)cccc4F)c(Cl)c3OC[C@H]2C1` (single isomer, unassigned) [Z317a-2], the IC50 in experiment [1] (Homo sapiens, NCI-H358, 120 h) was 108 nM; in experiment [2] (Homo sapiens, A549, 120 h), more than 30000 nM.
`C=CC(=O)N1CCN2C(=O)c3c(N4CCC(N(C)C)CC4)nc(-c4c(O)cccc4F)c(Cl)c3OC[C@H]2C1` [Z31, (6aR)-8-acryloyl-4-chloro-1-(4-(dimethylamino)piperidin-1-yl)-3-(2-fluoro-6-hydroxyphenyl)-6,6a,7,8,9,10-hexahydro-12H-pyrazino[2,1-c]pyrido[3,4-f][1,4]oxazepin-12-one]: the IC50 is 176 nM in experiment [1] (Homo sapiens, NCI-H358, 120 h) and more than 30000 nM in experiment [2] (Homo sapiens, A549, 120 h).
On to `C=CC(=O)N1CCN2C(=O)c3c(Nc4c(C)c(Cl)nn4C(C)C)nc(-c4c(O)cccc4F)c(Cl)c3OC[C@H]2C1` [Z16, (6aR)-8-acryloyl-4-chloro-1-((3-chloro-1-isopropyl-4-methyl-1H-pyrazol-5-yl)amino)-3-(2-fluoro-6-hydroxyphenyl)-6,6a,7,8,9,10-hexahydro-12H-pyrazino[2,1-c]pyrido[3,4-f][1,4]oxazepin-12-one], for which the IC50 in experiment [1] (Homo sapiens, NCI-H358, 120 h) is 37 nM; in experiment [2] (Homo sapiens, A549, 120 h), more than 1000 nM.
With `C=CC(=O)N1CCN2C(=O)c3c(N4C[C@@H](C)O[C@@H](C)C4)nc(-c4c(O)cccc4F)c(Cl)c3OC[C@H]2C1` [Z247, (6aR)-8-acryloyl-1-((2S,6R)-2,6-dimethylmorpholino)-4-chloro-3-(2-fluoro-6-hydroxyphenyl)-6,6a,7,8,9,10-hexahydro-12H-pyrazino[2,1-c]pyrido[3,4-f][1,4]oxazepin-12-one], the 50% inhibitory concentration (IC50) in experiment [1] (Homo sapiens, NCI-H358, 120 h) amounted to 41 nM; in experiment [3], 47 nM.
As to `C=CC(=O)N1CCN2C(=O)c3c(N4CCS(=O)(=O)CC4)nc(-c4c(O)cccc4F)c(Cl)c3OC[C@H]2C1` [Z26, (6aR)-8-acryloyl-4-chloro-1-(1,1-dioxidothiomorpholino)-3-(2-fluoro-6-hydroxyphenyl)-6,6 a,7,8,9,10-hexahydro-12H-pyrazino[2,1-c]pyrido[3,4-f][1,4]oxazepin-12-one], the 50% inhibitory concentration (IC50) in experiment [1] (Homo sapiens, NCI-H358, 120 h) is 479 nM; in experiment [2] (Homo sapiens, A549, 120 h), more than 30000 nM.
